Laboratory results: article PMC11872507, “Lasso peptides sviceucin and siamycin I exhibit anti-virulence activity and restore vancomycin effectiveness in vancomycin-resistant pathogens” (iScience, 2025)
In brackets after ≈: the same amount, converted by molar mass.

Legend:
E. faecalis JH2-2 08048 = assay: microbe, parasite or virus in culture; format: cell-based, Enterococcus faecalis; details: Enterococcus faecalis, JH2208048, read-out: Vancomycin MIC
Description: The MIC of vancomycin was determined by the microdilution method described in the guidelines of the European Committee on Antimicrobial Susceptibility Testing (EUCAST 2024, v14.0 Breakpoint Tables).[58] For enterococci, GM17 medium was used instead of CAMH medium since enterococci cannot degrade starch, the main carbohydrate of MH medium. 2-fold serial dilutions of the tested antibiotic were performed to obtain concentrations ranging from 0.5 to 512 μg/mL. LP were then added to the wells at the desired concentration. The medium was inoculated with a final inoculum of 5 × 10^5 CFU/mL. The MIC is the lowest concentration that prevents visible in vitro growth.

E. faecalis merz96 = assay: microbe, parasite or virus in culture; format: cell-based, Enterococcus faecalis; details: Enterococcus faecalis, MERZ96, read-out: Vancomycin MIC
E. faecium 1 231 410 = assay: microbe, parasite or virus in culture; format: cell-based, Enterococcus faecium; details: Enterococcus faecium, 1231410, read-out: Vancomycin MIC
V583 vanSB^D398E = assay: Vancomycin MIC, microdilution; format: cell-based; details: Enterococcus faecalis; vancomycin alone (control)
E. faecalis V583 [1] = assay: Checkerboard broth microdilution; format: cell-based; details: Enterococcus faecalis, control, vancomycin alone
Description: Since sviceucin and siamycin I inhibit signal transduction of the FsrAC TCS in vivo, we next wondered if the lasso peptides would also target other TCSs. In E. faecalis, the VanRS TCS regulates resistance to vancomycin, an antibiotic of clinical importance. The minimum inhibitory concentrations (MICs) of this antibiotic in combination with the lasso peptides were thus determined for clinically relevant Enterococcus and S. aureus strains from our in-house collection. The chosen concentrations of the peptides (2 μM of siamycin I and 10 μM of sviceucin) are the lowest subinhibitory concentrations that allow the maximum synergy with vancomycin, as determined by the checkerboard method on the E. faecalis V583 strain (Table S1).

[2] = tested on: vanYB in E. faecalis V583; assay: vanYB expression by RT-qPCR; format: cell-based, Enterococcus faecalis; details: vancomycin 1 μg/mL alone
Description: (§1) For gelE gene expression measurements, bacteria were cultured in GM17 medium supplemented with the 1:1 water:methanol formulation or either sviceucin at 10 μM, or siamycin I at 1 μM. Cultures were incubated at 37°C until reaching OD600 of 0.5. For vanY gene expression measurements, bacteria were cultured in GM17 medium supplemented with either vancomycin at 1 μg/mL or sviceucin at 10 μM and vancomycin at 1 μg/mL at 37°C to induce the expression of van genes until reaching OD600 of 0.5. Bacteria were recovered by centrifugation at 4200 RCF for 2 min. Once the supernatant was discarded, the pellets were stored at −80°C. Pellets were resuspended in TE buffer or ML lysis buffer, depending on kit used, and transferred in Lysis Matrix B Tubes (MP Biomedicals, USA) before cell lysis with a FastPrep-24 5G (2 × 40 s at 6 m/s, 5 min on ice in-between cycles) (MP Biomedicals, USA). After bead-beating lysis, RNA extraction was performed using Direct-Zol RNA Miniprep kit (Zymo Research, USA) for gelE gene expression measurements or NucleoSpin^Ⓡ miRNA Miniprep kit (Macherey-Nagel, Germany) for vanY gene expression measurements, according to the manufacturers’ instructions. Retrotranscription was performed using QuantiTect Reverse transcription (QIAGEN, Germany). qPCR on cDNA was performed with GoTaq qPCR (Promega, USA). […] Data were analyzed with CFX Manager software (Biorad, USA).

vanYB in Svic1 = assay: vanYB expression by RT-qPCR; format: cell-based, Enterococcus faecalis; details: vancomycin 1 μg/mL alone
Description: as §1

E. faecalis V583 [3] = assay: Quantification of D-Ala-D-Lac muropeptides by LCMS; format: cell-based, Enterococcus faecalis; details: vancomycin alone, 2 μg/mL; means of at least two biological replicates
Description: (§2) Extraction of muropeptides was performed as previously described[64] with modifications. Bacteria were cultured overnight in GM17 medium supplemented with 2 μg/mL of vancomycin (Merck, USA), 10 μM of sviceucin, or 2 μM of siamycin I. Bacteria were pelleted by centrifugation for 5 min at 10000 rpm and then resuspended in 1 mL of 0.1 M Tris-HCl (pH 6.8), 0.25% SDS. Samples were boiled for 20 min in a heating block (Biolock Scientific, USA) and then centrifuged for 5 min at 10000 rpm. The pellets were washed twice with 1 mL of cold ultrapure water before sonication for 30 min (Branson 1800 Cleaner, USA). 500 μL of DNase 15 μg/mL and RNase 60 μg/mL (Sigma-Aldrich, USA) were added to each sample then incubated at 37°C for 60 min. […] Pellets were resuspended in 12,5 mM sodium phosphate buffer (pH 5.5), then muropeptides concentration was determined and standardized to an OD578 of 3. […]
(§3) LCMS analysis was performed on an ultra-high performance LC system (Ultimate 3000 RSLC, Thermo Scientific, USA) coupled to a high-resolution electrospray ionization-quadrupole-time of flight mass spectrometer (MaXis II ETD, Bruker Daltonics, USA). […] Mass data were analyzed by Data Analysis 4.4 (Bruker Daltonics, USA). For quantification, the m/z corresponding to singly- and doubly-charged species of monomer, as well as doubly- and triply-charged species of dimers of muropeptides were manually searched. […]

Svic1 = assay: Quantification of D-Ala-D-Lac muropeptides by LCMS; format: cell-based, Enterococcus faecalis; details: vancomycin alone, 2 μg/mL; means of at least two biological replicates
Description: as §2, §3

SMILES: CN[C@H](CC(C)C)C(=O)N[C@H]1C(=O)N[C@@H](CC(N)=O)C(=O)N[C@H]2C(=O)N[C@H]3C(=O)N[C@H](C(=O)N[C@H](C(=O)O)c4cc(O)cc(O)c4-c4cc3ccc4O)[C@H](O)c3ccc(c(Cl)c3)Oc3cc2cc(c3O[C@@H]2O[C@H](CO)[C@@H](O)[C@H](O)[C@H]2O[C@H]2C[C@](C)(N)[C@H](O)[C@H](C)O2)Oc2ccc(cc2Cl)[C@H]1O [Vancomycin]
- MIC (E. faecalis JH2-2 08048): 64 µg/mL (≈ 44.2 µM)
- MIC (E. faecalis merz96): 32 µg/mL (≈ 22.1 µM)
- MIC (E. faecium 1 231 410): 128 µg/mL (≈ 88.3 µM)
- MIC (V583 vanSB^D398E): 128 µg/mL (≈ 88.3 µM)
- MIC (E. faecalis V583 [1]): 32 µg/mL
- vanYB expression induced by vancomycin, in words [2]: strongly induced
- vanYB expression induced by vancomycin, in words (vanYB in Svic1): strongly induced
- percentage of muropeptides D-Ala-D-Lac (E. faecalis V583 [3]): 48.3%
- percentage of muropeptides D-Ala-D-Lac (Svic1): 62.0%
